We go through 7 compounds from publication PMC6711789 (Bioorganic & medicinal chemistry letters, 2019).

Series [1] deals with S. aureus ATCC 8235-4 (MSSA). Put plainly: Broth microdilution MIC against S. aureus ATCC 8235-4. Type of series: cell-based. Conditions: lowest concentration preventing visible growth. (In broth dilution the organism is exposed to a series of concentrations in liquid medium.)
A short description of series [2]: Cytotoxicity against HepG2 cells using CellTiter Glo. The series is classed as cell-based. Conditions: human. For orientation: ATP-based viability assays read luminescence as a measure of living cells.
The test system of series [3] is CYP1A2, 2C9, 2C19, 2D6, 3A4. Put plainly: CYP inhibition. Type of series: in vitro ADME. To be noted: measured against CYP1A2, 2C9, 2C19, 2D6, 3A4.
Series [4] relates to COXI and SDH-A mitochondrial proteins. Type of series: cell-based. Conditions: read-out: Mt protein synthesis inhibition IC50.

Marks after values point to notes of the source that are not given here.

For `CC(=O)NC[C@H]1CN(c2ccc(N3CCOC4(CCCNC4)C3)c(F)c2)C(=O)O1` (stereo partly drawn) [Compound 25], in series [1], the MIC is > 32^b μg/mL.

As to `CC(=O)NC[C@H]1CN(c2ccc(N3CCO[C@]4(CCCOC4)C3)c(F)c2)C(=O)O1` [Compound 19b], the EC50 (in general, the concentration at which the effect is half-maximal) in series [2] is above 30 µM. In addition, the CYP inhibition in series [3] was above 100 µM. The IC50 (in general, the point on the concentration scale where inhibition reaches its midpoint) in series [4] is above 30 µM.

In series [2], `CC(=O)NC[C@H]1CN(c2ccc(N3CCO[C@@]4(CCCOC4)C3)c(F)c2)C(=O)O1` [Compound 19a] displayed an EC50 above 30 µM. Moreover, the CYP inhibition in series [3] was above 100 µM. For the same compound, the IC50 in series [4] worked out at 30 µM.

As for `CC(=O)NC[C@H]1CN(c2ccc(N3CCOC4(CCNC4)C3)c(F)c2)C(=O)O1` (stereo partly drawn) [Compound 27], the MIC in series [1] is > 32^b μg/mL.

For `CC(=O)NC[C@H]1CN(c2ccc(N3CCOC(C)(CCN(C)C)C3)c(F)c2)C(=O)O1` (stereo partly drawn) [Compound 23], the MIC in series [1] is > 32^b μg/mL.

`CC(=O)NC[C@H]1CN(c2ccc(N3CCOCC3)c(F)c2)C(=O)O1` [Linezolid, linezolid, reference compound] gave an EC50 in series [2] above 30 µM. The CYP inhibition in series [3] is above 100 µM.

On to `CC(=O)NC[C@H]1CN(c2ccc(N3CCOC4(CCN(C)C4)C3)c(F)c2)C(=O)O1` (stereo partly drawn) [Compound 17], for which the MIC in series [1] is > 32^b μg/mL.
